The values that follow come from ChEMBL document CHEMBL2062432, “Design and synthesis of novel DFG-out RAF/vascular endothelial growth factor receptor 2 (VEGFR2) inhibitors: 2. Synthesis and characterization of a novel imide-type prodrug for improving oral absorption” (Bioorg Med Chem, 2012).

In series [1] the target is Serine/threonine-protein kinase B-raf (Homo sapiens, UniProt P15056, V600E). Nature of the series: Inhibition of BRAF V600E mutant.
Series [2] can be described thus: Thermodynamic solubility of the compound in JP2 solution at pH 6.8 in presence of 20 mM bile acid. Particulars: JP2 solution with 20 mM bile acid, read-out: Therm_solubility. The class given is physicochemical.
Series [3] in a line: Metabolic stability in human liver microsomes assessed as compound remaining at 30 uM after 60 mins by HPLC analysis. Particulars: read-out: Stability. It counts as ADME, Microsome. (In general: Liver microsomes are vesicles of endoplasmic reticulum, rich in cytochrome P450 enzymes.)

Serine/threonine-protein kinase B-raf, sequence (P15056 2-766 V600E limits assumed): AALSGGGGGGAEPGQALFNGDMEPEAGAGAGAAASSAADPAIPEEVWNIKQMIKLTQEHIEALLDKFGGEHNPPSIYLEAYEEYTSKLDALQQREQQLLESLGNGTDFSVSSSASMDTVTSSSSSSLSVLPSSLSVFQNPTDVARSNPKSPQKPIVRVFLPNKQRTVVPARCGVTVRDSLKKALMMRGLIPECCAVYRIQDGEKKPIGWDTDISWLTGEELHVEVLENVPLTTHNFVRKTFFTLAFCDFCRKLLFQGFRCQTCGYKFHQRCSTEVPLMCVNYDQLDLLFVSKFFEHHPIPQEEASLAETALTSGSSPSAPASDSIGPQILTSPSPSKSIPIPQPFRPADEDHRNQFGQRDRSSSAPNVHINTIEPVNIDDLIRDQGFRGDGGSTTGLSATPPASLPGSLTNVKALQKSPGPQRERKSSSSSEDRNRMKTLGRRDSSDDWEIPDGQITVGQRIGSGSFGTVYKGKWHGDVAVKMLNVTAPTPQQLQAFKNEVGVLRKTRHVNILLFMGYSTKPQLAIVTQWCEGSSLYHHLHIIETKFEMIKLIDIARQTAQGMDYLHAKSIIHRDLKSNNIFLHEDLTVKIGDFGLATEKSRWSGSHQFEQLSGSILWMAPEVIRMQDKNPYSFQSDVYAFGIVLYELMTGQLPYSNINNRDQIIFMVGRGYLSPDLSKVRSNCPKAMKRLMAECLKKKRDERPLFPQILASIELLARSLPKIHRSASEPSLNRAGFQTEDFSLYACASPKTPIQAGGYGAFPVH

By IC50 is commonly meant the concentration that gives 50% inhibition. Compound `CC(C)(C)OC(=O)Nc1cc(Oc2ccc3nc(NC(=O)C4CC4)sc3n2)ccc1F` had an IC50 in series [1] of 2 µM. As for `CCOC(=O)N(C(=O)c1cccc(C2(C#N)CC2)c1Cl)c1cc(Oc2ccc3nc(NC(=O)C4CC4)sc3n2)ccc1F`, in series [2], the solubility thermodynamic was 0.79 µg/mL. In the case of `CC(=O)Nc1nc2ccc(Oc3ccc(F)c(NC(=O)c4cccc(C5(C#N)CC5)c4Cl)c3)nc2s1`, in series [3], the remaining at 1 h, 30 µM is 78.5%.

For the compound `N#CC1(c2cccc(C(=O)N(C(=O)C3CC3)c3cc(Oc4ccc5nc(NC(=O)C6CC6)sc5n4)ccc3F)c2Cl)CC1`, the solubility thermodynamic in series [2] stood at 3.2 µg/mL. Turning to `N#CC1(c2cccc(C(=O)Nc3cc(Oc4ccc5nc(NC(=O)C6CC6)sc5n4)ccc3F)c2Cl)CC1`, the remaining at 1 h, 30 µM in series [3] stood at 110%. Moreover, the solubility thermodynamic in series [2] stood at 3.6 µg/mL.
